Assay results published in patent publication US20230035403A1, “Method For Determining Responsiveness To Prostate Cancer Treatment” (Janssen Biotech, Inc., priority 2020, published 2023).

Experiments:
[1] = tested on: autologous CD3+ Pan-T cells (CD8+ and CD4+ T cells) with peptide-pulsed CD1c+ Dendritic Cells; assay: Exogenous autologous normal donor restimulation assay (in vitro immunogenicity); assay type: cell-based, human; set-up: key to Max. Frequency of CD8+ TNFαINFγ DP / Max. Frequency of CD4+ TNFαINFγ DP: % of T cells double positive for TNFα/IFNγ; conditions: pool of overlapping 15-mer peptides, maximum across normal donors; for Max. Fold Change over background CD4+ TNFαINFγ double positive DP / Max. Fold Change over background CD8+ TNFαINFγ double positive DP / Max. Frequency of CD4+ TNFαINFγ DP / Max. Frequency of CD8+ TNFαINFγ DP: Table 28, additional neoantigens; for Maximum Fold Change Over Background CD4+ cells / Maximum Fold Change Over Background CD8+ cells / Maximum Frequency of TNFα/IFNγ Double Positive CD4+ T cells / Maximum Frequency of TNFα/IFNγ Double Positive CD8+ T cells: Table 25; for Maximum Fold Change Over Background CD4+ cells: TNFα+IFNγ+ CD4+ T cells; for Maximum Fold Change Over Background CD4+ cells / Maximum Fold Change Over Background CD8+ cells: over negative control; for Maximum Fold Change Over Background CD8+ cells: TNFα+IFNγ+ CD8+ T cells
Procedure: CD1c+ Dendritic Cells (DC) isolated from human normal PBMCs were thawed using media (IMDM (Gibco) supplemented with glutamine, HEPES, 5% human serum (Sigma), and 1× Pen-Strep). DC cells were resuspended in media supplemented with IL-4 (Peprotech, 80 ng/mL) and GM-CSF (Gibco, 80 ng/mL), plated in 6 well microplates, and rested overnight at 37° C. (5% CO2). The following day, DC cells were counted and plated in a 96 well round bottom microplate at a concentration of 30,000 viable cells per well. Lyophilized peptides (15-mer overlapping peptides) were solubilized in 100% DMSO and pooled by neoantigen to between 5 mg/mL and 20 mg/mL. Neoantigen peptides pools were added to DCs for a final concentration of 2.5 μg/mL to 10 μg/mL and rested for 2 hours at 37° C. (5% CO2). CEF Peptide Pool “Plus” (Cellular Technologies, Ltd.) was utilized as a positive control and DMSO at the same final concentration as the experimental peptides was utilized as a negative control. After 2 hours, DC cells were irradiated with 50 gray of ionizing radiation. Autologous CD3+ Pan-T cells isolated from human normal PBMCs were thawed using media. Following irradiation, autologous Pan-T cells were added to the irradiated DCs at 300,000 viable cells per well. Human IL-15 (Peprotech) was added to all wells at final concentration of 10 ng/mL.
(§1) Plates were incubated at 37° C. (5% CO2) for a total of 12 days. Media was refreshed every 2-3 days with IL-15 (10 ng/mL final concentration) and IL-2 (R&D systems, 10 IU/mL final concentration). On day 11 cells were re-stimulated with identical experimental peptide pools or controls, at same concentration as peptide stimulation on Day 1. Protein Inhibitor Cocktail (eBioscience) was added to every well and plate was incubated overnight at 37° C. (5% CO2).
(§2) On day 12, cells were stained for intracellular flow cytometry analysis. The cells were washed with PBS and stained with Live/Dead Fixable Aqua Dead Cell stain (Thermo-Fisher). Following the live/dead stain, cells were blocked using Biotin-Free Fc Receptor Blocker (Accurate Chemical & Scientific Corp). Extracellular cellular flow panel (1 μL/antibody per well in 50 μL) consisted of CD3 PerCP-Cy5.5 (Biolegend), CD4 BV421 (Biolegend), and CD8 APC-Cy7 (Biolegend). After extracellular staining, cells were fixed using Foxp3/Transcription Factor Staining Buffer Set (eBioscience) and stained for intracellular proteins (1:50 dilution) using TNFα FITC (R&D Systems) and IFNγ BV785 (Biolegend). Cells were washed and resuspended in stain buffer and analyzed using a BD Celesta flow cytometer.
Flow cytometry cell staining analysis was completed using FlowJo v10. Cells were gated on live, singlet, CD3+ cells. The CD8+ and CD4+ T cells were analyzed for TNFα/IFNγ expression and the frequency of double positive TNFα/IFNγ CD8+ and the frequency of double positive TNFα/IFNγ CD4+ T cells were recorded. Responses were assessed to be positive when the frequency of double positive TNFα/IFNγ CD8+ or TNFα/IFNγ CD4+ T cells due to stimulation with an experimental peptide pool was increased greater than or equal to 3-fold over the DMSO only negative control for that donor and at least 0.01%.
(§3) Overlapping 15-mer peptides were designed to span each neoantigen incorporated into NeoGAd20 and NeoMVA to assess their ability to activate T cells using the exogenous autologous normal donor restimulation assay described in Example 1 as pools using TNFα and IFNγ production by CD8^+ and CD4^+ T cells as a readout.
as §3, with “Immunogenicity of various additional identified neoantigens was assessed. Overlapping” for “Overlapping”, “similarly to what was done in Example 11” for “incorporated into NeoGAd20 and NeoMVA”

[2] = tested on: CD8+ T cells in PBMCs from patients with metastatic castrate-resistant prostate cancer; assay: Patient PBMC restimulation assay (in vitro immunogenicity of neoantigens); assay type: cell-based, human; conditions: for Immunogenic: Patient PBMC restimulation, TNFα and IFNγ production by CD8+ T cells; for Maximum frequency of TNFα^+IFNγ^+CD8^+ T cells (Percent): greatest frequency among all tested PBMC donors, negative control 0.011-0.8 depending on patient; for Maximum fold change over negative control: TNFα+IFNγ+CD8+ T cells, highest fold change across the PBMC donors evaluated, 9 mer peptide
Procedure: PBMCs from human patients with metastatic castrate-resistant prostate cancer were thawed using media (RPMI 1640 supplemented with Glutamax, 10% HI FBS, and 1× Sodium Pyruvate). Cells were counted and plated in a 96 well round bottom microplate at a concentration of 250,000 viable cells per well. Lyophilized peptides were solubilized in 100% DMSO and diluted in media to 10 μg/mL. Neoantigen peptides were added in equal volume to PBMCs for a final concentration of 5 μg/mL. CEF Peptide Pool “Plus” (Cellular Technologies, Ltd.) was utilized as a positive control and DMSO at the same final concentration as the experimental peptides was utilized as a negative control. Human IL-15 (Peprotech) was added to all wells at final concentration of 10 ng/mL.
as §1, with “13” for “12”, “2” for “2-3”, “12, PBMCs” for “11 cells”, “peptides” for “peptide pools”, “After 1-hour incubation, protein” for “Protein”, “overnight.” for “overnight at 37° C. (5% CO2).”
as §2, with “13,” for “12,”
Flow cytometry cell staining analysis was completed using FlowJo v10. Cells were gated on live, singlet, CD3+ cells. The CD8+ T cells were analyzed for TNFα/IFNγ expression and the frequency of double positive TNFα/IFNγ CD8+ T cells was recorded. Responses were assessed to be positive when the frequency of double positive TNFα/IFNγ CD8+ T cells due to stimulation with an experimental peptide was increased greater than or equal to 2-fold over the DMSO only negative control for that patient. Peptides were analyzed in 1 to 7 patient samples.
The 9 mer fragments shown in Table 13 were assessed for their ability to activate T cells using the Patient PBMC restimulation assay described in Example 1 using TNFα and IFNγ production by CD8^+ T cells as a readout. Self-antigens shown in Table 15 were also used in the assays. […] PBMCs from ten patients were evaluated.

Substance	Max. Fold Change over background CD4+ TNFαINFγ double positive DP [1]	Max. Fold Change over background CD8+ TNFαINFγ double positive DP [1]	Max. Frequency of CD4+ TNFαINFγ DP [1]	Max. Frequency of CD8+ TNFαINFγ DP [1]	Immunogenic [2]	Maximum frequency of TNFα^+IFNγ^+CD8^+ T cells (Percent) [2] [%]	Maximum Fold Change Over Background CD4+ cells [1]	Maximum Fold Change Over Background CD8+ cells [1]	Maximum Frequency of TNFα/IFNγ Double Positive CD4+ T cells [1]	Maximum Frequency of TNFα/IFNγ Double Positive CD8+ T cells [1]	Maximum fold change over negative control [2]
P27 (FPVGAEGTF) [Neoantigen P27]	45.38	7.87	0.05	0.59							
P19 (IPVLTRWPL) [Neoantigen P19]	6.67	4.76	0.16	0.15							
P37 (GVLRRLLCR) [Peptide P37]					Yes	1.160					
HYKLIQQPISLFSITDRLHKTFSQLPSVHLCSITFQWGHPPIFCSTNDICVTANFCISVTFLKPCFLLHEASASQ [MS1]							50.19	5.56	0.39	0.1	
P59 (NMVENGCYL) [Peptide P59]					Yes	3.010					10.75
P27 (FPVGAEGTF) [Peptide P27]					Yes	0.430					3.43
P97 (LMAQRLLLR) [Neoantigen P97]	3.14	7.47	0.12	1.11							
YAYKDFLWCFPFSLVFLQEIQICCHVSCLCCICCSTRICLGCLLELFLSRALRALHVLWNGFQLHCQ [MS6]							111.97	4.17	0.87	0.08	
GVPGDSTRRAVRRMNTF [Neoantigen P16]					Yes	4.620	2.44	2.44	0.039	0.039	65.82
NSKMALNSLNSIDDAQLTRIAPPRSHCCFWEVNAP [Neoantigen P35]					Yes	0.064	3.47	14.44	0.03	0.26	2.67
P50 (IQYSCMGLM) [Peptide P50]					Yes	0.190					5.14
P37 (GVLRRLLCR) [Neoantigen P37]	22.78	2.05	0.09	0.13							
TMPAILKLQKNCLLSL [MS8]							15.60	4.44	0.40	0.14	
